# In the supplement of paper PMC10307832:
# How the values were obtained:
# Assay in all cases: relative viability (nuclei count vs DMSO), 5 days (fraction); higher = more cells survive
# Tipifarnib + Trametinib = compound: Cn1cncc1[C@@](N)(c1ccc(Cl)cc1)c1ccc2c(c1)c(-c1cccc(Cl)c1)cc(=O)n2C [Tipifarnib] + CC(=O)Nc1cccc(-n2c(=O)n(C3CC3)c(=O)c3c(Nc4ccc(I)cc4F)n(C)c(=O)c(C)c32)c1 [Trametinib] (partner 0.02 µM)
# Summary of the method: (§1)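 Lung cancer cell lines were pin-tool dosed in 1536-well plates on the day after seeding, with either a lone drug or a fixed anchor-drug dose plus five library-drug doses (not always all listed) in √10 steps. Nuclei were counted on 4× images after 5 days. Relative viability is the ratio of treated-well to vehicle-well nuclei counts, with each value a median of duplicate plates.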
# Tipifarnib + Crizotinib = compound: Cn1cncc1[C@@](N)(c1ccc(Cl)cc1)c1ccc2c(c1)c(-c1cccc(Cl)c1)cc(=O)n2C [Tipifarnib] + C[C@@H](Oc1cc(-c2cnn(C3CCNCC3)c2)cnc1N)c1c(Cl)ccc(F)c1Cl [Crizotinib] (partner 1 µM)
# Summary of the method: as §1
# Tipifarnib + Phenformin = compound: Cn1cncc1[C@@](N)(c1ccc(Cl)cc1)c1ccc2c(c1)c(-c1cccc(Cl)c1)cc(=O)n2C [Tipifarnib] + N=C(N)NC(=N)NCCc1ccccc1 [Phenformin] (partner 250 µM)
# Summary of the method: as §1
# Tipifarnib + OSI-027 = compound: Cn1cncc1[C@@](N)(c1ccc(Cl)cc1)c1ccc2c(c1)c(-c1cccc(Cl)c1)cc(=O)n2C [Tipifarnib] + COc1cccc2cc(-c3nc([C@H]4CC[C@H](C(=O)O)CC4)n4ncnc(N)c34)[nH]c12 [OSI-027] (partner 0.5 µM)
# Summary of the method: as §1
Cell Line,relative viability (Tipifarnib + Trametinib; first compound 0.01 µM),relative viability (Tipifarnib + Trametinib; first compound 0.03162 µM),relative viability (Tipifarnib + Trametinib; first compound 0.1 µM),relative viability (Tipifarnib + Trametinib; first compound 0.3162 µM),relative viability (Tipifarnib + Trametinib; first compound 1 µM),relative viability (Tipifarnib + Crizotinib; first compound 0.01 µM),relative viability (Tipifarnib + Crizotinib; first compound 0.03162 µM),relative viability (Tipifarnib + Crizotinib; first compound 0.1 µM),relative viability (Tipifarnib + Crizotinib; first compound 0.3162 µM),relative viability (Tipifarnib + Crizotinib; first compound 1 µM),relative viability (Tipifarnib + Phenformin; first compound 0.01 µM),relative viability (Tipifarnib + Phenformin; first compound 0.03162 µM),relative viability (Tipifarnib + Phenformin; first compound 0.1 µM),relative viability (Tipifarnib + Phenformin; first compound 0.3162 µM),relative viability (Tipifarnib + Phenformin; first compound 1 µM),relative viability (Tipifarnib + OSI-027; first compound 0.01 µM),relative viability (Tipifarnib + OSI-027; first compound 0.03162 µM),relative viability (Tipifarnib + OSI-027; first compound 0.1 µM),relative viability (Tipifarnib + OSI-027; first compound 0.3162 µM),relative viability (Tipifarnib + OSI-027; first compound 1 µM)
NCI-H322M,0.492,0.565,0.519,0.542,0.548,0.874,0.854,0.79,0.463,0.587,0.868,0.749,0.799,0.682,0.66,0.5,0.492,0.513,0.415,0.445
NCI-H358,0.143,0.102,0.133,0.107,0.135,0.563,0.261,0.35,0.245,0.23,0.372,0.45,0.307,0.323,0.168,0.803,0.788,0.429,0.385,0.178
NCI-H441,0.429,0.319,0.372,0.228,0.225,0.723,0.465,0.492,0.346,0.277,0.984,0.619,0.465,0.525,0.329,0.791,0.255,0.393,0.326,0.272
NCI-H460,0.142,0.0861,0.0817,0.0529,0.0386,1.12,0.249,0.133,0.0704,0.0599,0.516,0.376,0.295,0.224,0.0277,0.669,0.626,0.257,0.209,0.0157
NCI-H520,0.87,0.642,0.7,0.521,0.315,1.05,0.598,0.645,0.341,0.345,0.591,0.319,0.447,0.425,0.267,0.214,0.262,0.187,0.19,0.199
NCI-H596,0.759,1,0.593,0.53,0.527,1.09,0.974,1.03,0.945,0.813,0.801,0.745,0.663,0.574,0.658,0.725,0.627,0.606,0.398,0.506
NCI-H647,0.475,0.419,0.418,0.254,0.225,0.76,0.618,0.515,0.367,0.521,0.499,0.353,0.469,0.262,0.114,0.409,0.585,0.438,0.299,0.101
NCI-H650,1.09,0.911,0.841,0.696,0.549,0.773,0.679,0.442,0.437,0.345,0.411,0.419,0.419,0.408,0.277,0.486,0.375,0.297,0.305,0.266
NCI-H661,0.627,0.487,0.482,0.396,0.456,1.02,0.935,0.785,0.837,0.786,0.29,0.283,0.275,0.261,0.309,0.696,0.601,0.439,0.33,0.339
NCI-H727,0.425,0.395,0.379,0.384,0.404,0.958,0.838,0.746,0.695,0.675,0.529,0.501,0.544,0.617,0.539,0.599,0.535,0.459,0.477,0.427
NCI-H838,0.47,0.483,0.434,0.431,0.374,0.694,0.538,0.434,0.434,0.433,0.547,0.504,0.421,0.44,0.389,0.357,0.339,0.23,0.231,0.184
NCI-H1355,0.486,0.387,0.357,0.352,0.339,1.19,1.05,0.764,0.64,0.673,0.427,0.44,0.429,0.403,0.344,0.37,0.344,0.295,0.262,0.26
NCI-H1437,0.591,0.596,0.619,0.406,0.446,0.978,0.959,1,0.763,0.894,0.266,0.315,0.296,0.218,0.228,0.823,0.728,0.488,0.446,0.33
NCI-H1650,0.442,0.285,0.474,0.294,0.236,0.47,0.454,0.401,0.324,0.337,0.291,0.209,0.196,0.262,0.187,0.407,0.17,0.305,0.26,0.196
NCI-H1651,0.827,0.754,0.781,0.832,0.802,0.951,0.856,0.893,0.789,0.843,0.322,0.327,0.319,0.266,0.235,0.65,0.729,0.673,0.558,0.456
NCI-H1666,0.832,0.798,0.846,0.811,0.679,0.958,0.816,0.761,0.626,0.843,0.526,0.502,0.552,0.471,0.575,0.73,0.737,0.585,0.566,0.602
